Laboratory results published in patent US10472420B2, “Immune response modifier conjugates” (3M INNOVATIVE PROPERTIES COMPANY, priority 2006, dated 2019).

Row | melting point [°C] | SMILES
1 | 203 to 204.6 | CCOCc1nc2c(N)nc3ccccc3c2n1CC(C)(C)NC(=O)CCC(=O)NN [IRM5, N-{2-[4-Amino-2-(ethoxymethyl)-1H-imidazo[4,5-c]quinolin-1-yl]-1,1-dimethylethyl}-4-hydrazino-4-oxobutanamide]
2 | 152 to 157 | CCOCc1nc2c(N)nc3cc(OCCCCCCNC(=O)CCS)ccc3c2n1CC(C)(C)NS(C)(=O)=O [IRM10, N-{6-[(4-Amino-2-(ethoxymethyl)-1-{2-methyl-2-[(methylsulfonyl)amino]propyl}-1H-imidazo[4,5-c]quinolin-7-yl)oxy]hexyl}-3-mercaptopropanamide]
